Read-outs that look alike come from different tables or passages of the source.

The target of the test is T1, F508del (Homo sapiens, UniProt P13569, DEL508-508).
T1 construct: expressed in transfected cells
Description: Protocol 2: FRET membrane potential optical assay (VIPR), identification of correction compounds. Format: cell-based. A digest of the protocol:
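Correction of the F508del trafficking defect is scored as forskolin (10 μM)/genistein (20 μM)-stimulated Cl^− efflux in NIH3T3 mouse fibroblasts after a 16 hr, 37° C. compound exposure. Depolarization was followed optically using voltage-sensing FRET dyes.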

The mark [1] stands for this setting: Table 3, compounds of Table 1 as modulators of CFTR activity, protocol not stated.
Setting [2] is: F508del CFTR modulator activity, compounds of Table 1, read-out: EC30.

T1 sequence (P13569 with tags, fused parts or gaps DEL508-508): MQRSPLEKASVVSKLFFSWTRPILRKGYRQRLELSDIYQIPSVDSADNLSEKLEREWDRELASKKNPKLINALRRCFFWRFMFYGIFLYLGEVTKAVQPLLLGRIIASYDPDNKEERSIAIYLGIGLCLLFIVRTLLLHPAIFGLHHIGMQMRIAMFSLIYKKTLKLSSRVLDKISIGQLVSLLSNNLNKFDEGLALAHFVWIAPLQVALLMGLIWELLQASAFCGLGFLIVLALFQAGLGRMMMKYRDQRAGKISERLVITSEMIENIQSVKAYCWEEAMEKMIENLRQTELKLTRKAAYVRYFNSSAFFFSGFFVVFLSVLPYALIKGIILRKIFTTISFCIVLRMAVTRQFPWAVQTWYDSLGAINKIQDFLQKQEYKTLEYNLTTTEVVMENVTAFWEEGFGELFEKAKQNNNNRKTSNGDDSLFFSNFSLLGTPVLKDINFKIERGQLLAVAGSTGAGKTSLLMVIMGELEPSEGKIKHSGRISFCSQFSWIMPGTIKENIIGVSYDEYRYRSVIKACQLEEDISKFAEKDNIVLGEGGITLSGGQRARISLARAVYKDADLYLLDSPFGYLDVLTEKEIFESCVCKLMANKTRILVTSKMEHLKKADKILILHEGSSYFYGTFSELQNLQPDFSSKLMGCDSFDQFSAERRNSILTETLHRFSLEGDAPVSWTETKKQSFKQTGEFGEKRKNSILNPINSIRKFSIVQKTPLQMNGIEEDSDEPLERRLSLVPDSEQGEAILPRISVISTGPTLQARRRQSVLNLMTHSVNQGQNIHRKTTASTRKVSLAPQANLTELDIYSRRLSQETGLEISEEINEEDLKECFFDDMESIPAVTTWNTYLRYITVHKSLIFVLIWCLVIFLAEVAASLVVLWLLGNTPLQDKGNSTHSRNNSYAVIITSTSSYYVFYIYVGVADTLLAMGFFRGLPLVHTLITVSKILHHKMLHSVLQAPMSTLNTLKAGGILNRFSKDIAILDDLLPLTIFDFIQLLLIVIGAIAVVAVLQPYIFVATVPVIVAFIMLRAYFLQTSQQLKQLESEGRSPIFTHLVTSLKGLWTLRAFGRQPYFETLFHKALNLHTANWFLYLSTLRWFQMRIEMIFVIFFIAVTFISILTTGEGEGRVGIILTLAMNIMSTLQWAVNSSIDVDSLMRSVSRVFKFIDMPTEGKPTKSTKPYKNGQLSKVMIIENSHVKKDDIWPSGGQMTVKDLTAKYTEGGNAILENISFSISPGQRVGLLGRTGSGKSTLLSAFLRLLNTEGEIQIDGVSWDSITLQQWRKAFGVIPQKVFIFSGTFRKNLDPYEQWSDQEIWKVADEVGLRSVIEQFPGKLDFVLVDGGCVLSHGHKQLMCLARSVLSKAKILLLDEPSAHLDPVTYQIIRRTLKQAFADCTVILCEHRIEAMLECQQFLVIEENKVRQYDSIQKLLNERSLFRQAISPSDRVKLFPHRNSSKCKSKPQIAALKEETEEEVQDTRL

With `Cc1cc(C)c(Oc2nc(C)ccc2C(=O)NS(=O)(=O)c2cccc(NCCN)n2)c(C)c1` [Compound 792, N-[[6-(2-aminoethylamino)-2-pyridyl]sulfonyl]-6-methyl-2-(2,4,6-trimethylphenoxy)pyridine-3-carboxamide], the EC30 (commonly the concentration at which the effect reaches the 30% level) under setting [1] was “++ (“++” means between 3 uM and 10 uM)”.

As to `CCC(c1ccccc1)n1nc(C(C)(C)C)cc1C(=O)NS(=O)(=O)c1cccc(N)c1` (centres unmarked) [Compound 165, N-(3-aminophenyl)sulfonyl-5-tert-butyl-2-(1-phenylpropyl)pyrazole-3-carboxamide], the EC30 entry under setting [1] is recorded as “+++ (“+++” means <3 uM)”.

As to `Cc1cc(C)c(Cn2c(C(=O)NS(=O)(=O)c3ccccc3)cc3ccc(Cl)cc32)c(C)c1` [Compound 10, N-(benzenesulfonyl)-6-chloro-1-[(2,4,6-trimethylphenyl)methyl]indole-2-carboxamide], the EC30 result under setting [1] was “+++ (“+++” means <3 uM)”.

As for `Cc1cc(F)cc(-c2nc(C(C)(C)C)ccc2C(=O)NS(=O)(=O)c2cccc(N)c2)c1` [Compound 237, N-(3-aminophenyl)sulfonyl-6-tert-butyl-2-(3-fluoro-5-methyl-phenyl)pyridine-3-carboxamide], the EC30 entry under setting [1] is “++ (“++” means between 3 uM and 10 uM)”.

For `C[C@@H]1CN(c2nc(-c3ccc(C(F)(F)F)cc3)ccc2C(=O)NS(=O)(=O)c2cccnc2N)C(C)(C)C1` [Compound 2048, N-[(2-amino-3-pyridyl)sulfonyl]-6-[4-(trifluoromethyl)phenyl]-2-[(4S)-2,2,4-trimethylpyrrolidin-1-yl]pyridine-3-carboxamide], the EC30 under setting [2] was less than 3 µM.

Regarding `CCCCOCCCNc1cccc(S(=O)(=O)NC(=O)c2cccnc2N2CC(C)CC2(C)C)n1` (centres unmarked) [Compound 2529, N—[[6-(3-butoxypropylamino)-2-pyridyl]sulfonyl]-2-(2,2,4-trimethylpyrrolidin-1-yl)pyridine-3-carboxamide], under setting [2], the EC30 was less than 3 µM.

In the case of `C[C@@H]1CN(c2nc(-c3cccc(Cl)c3)ccc2C(=O)NS(=O)(=O)c2cccnc2N)C(C)(C)C1` [Compound 2183, N-[(2-amino-3-pyridyl)sulfonyl]-6-(3-chlorophenyl)-2-[(4S)-2,2,4-trimethylpyrrolidin-1-yl]pyridine-3-carboxamide], the concentration for an effect of 30% (EC30) under setting [2] is less than 3 µM.

In the case of `Cc1cc(C)c(C)c(Cn2nc(C(C)(C)C)cc2C(=O)NS(=O)(=O)c2cccc(N)c2)c1C` [Compound 317, N-(3-aminophenyl)sulfonyl-5-tert-butyl-2-[(2,3,5,6-tetramethylphenyl)methyl]pyrazole-3-carboxamide], the EC30 result under setting [1] is “+++ (“+++” means <3 uM)”.

In the case of `Cc1cc(-c2ccc(C(=O)NS(=O)(=O)c3cccc(N)n3)c(N3C[C@@H](C)CC3(C)C)n2)cc(OCCOC(C)C)n1` [Compound 2079, N-[(6-amino-2-pyridyl)sulfonyl]-6-[2-(2-isopropoxyethoxy)-6-methyl-4-pyridyl]-2-[(4S)-2,2,4-trimethylpyrrolidin-1-yl]pyridine-3-carboxamide], the EC30 under setting [2] is less than 3 µM.

On to `Cc1cccc(-c2ccc(C(=O)NS(=O)(=O)N3CC[C@H](N)C3)c(N3C[C@@H](C)CC3(C)C)n2)c1C` [Compound 2225, N-[(3S)-3-aminopyrrolidin-1-yl]sulfonyl-6-(2,3-dimethylphenyl)-2-[(4S)-2,2,4-trimethylpyrrolidin-1-yl]pyridine-3-carboxamide], for which the EC30 under setting [2] was 3 to 10 µM.

Take `CCC(C)(C)C(=O)N1CCC=C(c2ccc(C(=O)NS(=O)(=O)c3cccc(N)n3)c(N3C[C@@H](C)CC3(C)C)n2)C1` [Compound 2612, N-[(6-amino-2-pyridyl)sulfonyl]-6-[1-(2,2-dimethylbutanoyl)-3,6-dihydro-2H-pyridin-5-yl]-2-[(4S)-2,2,4-trimethylpyrrolidin-1-yl]pyridine-3-carboxamide]: the concentration for an effect of 30% (EC30) under setting [2] fell in the range of 3 to 10 µM.

Turning to `Cc1cc(C)c(Cn2c(C(=O)NS(=O)(=O)c3cccc(N)c3)cc3cc(Cl)ccc32)c(C)c1` [Compound 344, N-(3-aminophenyl)sulfonyl-5-chloro-1-[(2,4,6-trimethylphenyl)methyl]indole-2-carboxamide], the EC30 result under setting [1] is on record as “+++ (“+++” means <3 uM)”.

For the molecule `CC1CN(c2ncc(C3=CCN(C(=O)OC(C)(C)C)CC3)cc2C(=O)NS(=O)(=O)c2cccc(N)n2)C(C)(C)C1` (centres unmarked) [Compound 2129, tert-butyl 4-[5-[(6-amino-2-pyridyl)sulfonylcarbamoyl]-6-(2,2,4-trimethylpyrrolidin-1-yl)-3-pyridyl]-3,6-dihydro-2H-pyridine-1-carboxylate], under setting [2], the EC30 is less than 3 µM.

On to `Cc1cc(C)c(Oc2nc(C(C)(C)C)ncc2C(=O)NS(=O)(=O)c2cccc(N)c2)c(C)c1` [Compound 68, N-(3-aminophenyl)sulfonyl-2-tert-butyl-4-(2,4,6-trimethylphenoxy)pyrimidine-5-carboxamide], for which, under setting [1], the EC30 result is “+++ (“+++” means <3 uM)”.

For the molecule `CC1CN(c2ncccc2C(=O)NS(=O)(=O)c2cccc(OCCC3CCOCC3)n2)C(C)(C)C1` (centres unmarked) [Compound 2329, N—[[6-(2-tetrahydropyran-4-ylethoxy)-2-pyridyl]sulfonyl]-2-(2,2,4-trimethylpyrrolidin-1-yl)pyridine-3-carboxamide], the concentration for an effect of 30% (EC30) under setting [2] was less than 3 µM.

For `Cc1cc(C)c(CN2C[C@@H](c3ccccc3)C[C@H]2C(=O)NS(=O)(=O)c2cccc(N)n2)c(C)c1` [Compound 236, (2S,4R)—N-[(6-Amino-2-pyridyl)sulfonyl]-4-phenyl-1-[(2,4,6-trimethylphenyl)methyl]pyrrolidine-2-carboxamide], the EC30 entry under setting [1] was “++ (“++” means between 3 uM and 10 uM)”.

In the case of `COc1ccc(-c2ccc(C(=O)NS(=O)(=O)c3cccnc3N)c(N3C[C@@H](C)CC3(C)C)n2)cc1` [Compound 2667, N-[(2-amino-3-pyridyl)sulfonyl]-6-(4-methoxyphenyl)-2-[(4S)-2,2,4-trimethylpyrrolidin-1-yl]pyridine-3-carboxamide], under setting [2], the EC30 was less than 3 µM.

Turning to `CC(C)(C)c1cc(C(=O)NS(=O)(=O)c2ccccc2)n(Cc2cccc(-n3cccc3)c2)n1` [Compound 108, N-(benzenesulfonyl)-5-tert-butyl-2-[(3-pyrrol-1-ylphenyl)methyl]pyrazole-3-carboxamide], the EC30 entry under setting [1] was “+++ (“+++” means <3 uM)”.

Turning to `Cc1cc(C)c(Cn2c(C(=O)NS(=O)(=O)c3cccc(N)c3)cc3cc(C#N)ccc32)c(C)c1` [Compound 291, N-(3-aminophenyl)sulfonyl-5-cyano-1-[(2,4,6-trimethylphenyl)methyl]indole-2-carboxamide], the EC30 entry under setting [1] was “++ (“++” means between 3 uM and 10 uM)”.

As to `Cc1cc(OC2CCCC2)cc(-c2cnc(N3CC(C)CC3(C)C)c(C(=O)NS(=O)(=O)c3cccc(N)n3)c2)c1` (centres unmarked) [Compound 2313, N-[(6-amino-2-pyridyl)sulfonyl]-5-[3-(cyclopentoxy)-5-methyl-phenyl]-2-(2,2,4-trimethylpyrrolidin-1-yl)pyridine-3-carboxamide], under setting [2], the EC30 was less than 3 µM.

Turning to `CC(C)COc1cc(F)cc(-c2ccc(C(=O)NS(=O)(=O)c3cccc(N)n3)c(N3CCCC(C)C3)n2)c1` (centres unmarked) [Compound 735, N-[(6-amino-2-pyridyl)sulfonyl]-6-(3-fluoro-5-isobutoxy-phenyl)-2-(3-methyl-1-piperidyl)pyridine-3-carboxamide], the EC30 entry under setting [1] is “+++ (“+++” means <3 uM)”.

For `Cc1cccc(C)c1Cn1nc(-c2ccccc2Cl)cc1C(=O)NS(=O)(=O)c1ccccc1` [Compound 339, N-(benzenesulfonyl)-5-(2-chlorophenyl)-2-[(2,6-dimethylphenyl)methyl]pyrazole-3-carboxamide], the EC30 result under setting [1] is on record as “+++ (“+++” means <3 uM)”.

For the molecule `CC1CN(c2ncccc2C(=O)NS(=O)(=O)c2cccc(OCc3ccc(F)cc3F)n2)C(C)(C)C1` (centres unmarked) [Compound 2099, N—[[6-[(2,4-difluorophenyl)methoxy]-2-pyridyl]sulfonyl]-2-(2,2,4-trimethylpyrrolidin-1-yl)pyridine-3-carboxamide], the EC30 under setting [2] was less than 3 µM.

`Cc1cc(C)c(Oc2nc(-n3cccn3)ccc2C(=O)NS(=O)(=O)c2cccc(N)n2)c(C)c1` [Compound 564, N-[(6-amino-2-pyridyl)sulfonyl]-6-pyrazol-1-yl-2-(2,4,6-trimethylphenoxy)pyridine-3-carboxamide]: under setting [1], the EC30 entry was “++ (“++” means between 3 uM and 10 uM)”.

On to `COC(=O)c1cccc(Nc2cccc(S(=O)(=O)NC(=O)c3cccnc3N3CC(C)CC3(C)C)n2)c1` (centres unmarked) [Compound 2493, methyl 3-[[6-[[2-(2,2,4-trimethylpyrrolidin-1-yl)pyridine-3-carbonyl]sulfamoyl]-2-pyridyl]amino]benzoate], for which the EC30 under setting [2] is less than 3 µM.

On to `CC(C)COc1cc(F)cc(-c2ccc(C(=O)NS(=O)(=O)c3cccc(N)n3)c(N3CCCC34CCOC4)n2)c1` (centres unmarked) [Compound 424, N-[(6-amino-2-pyridyl)sulfonyl]-6-(3-fluoro-5-isobutoxy-phenyl)-2-(8-oxa-4-azaspiro[4.4]nonan-4-yl)pyridine-3-carboxamide], for which the EC30 result under setting [1] is recorded as “+++ (“+++” means <3 uM)”.

As to `Cc1cc(C)c(Oc2nc(C)ccc2C(=O)NS(=O)(=O)c2cccc(N)c2)c(C)c1` [Compound 13, N-(3-aminophenyl)sulfonyl-6-methyl-2-(2,4,6-trimethylphenoxy)pyridine-3-carboxamide], the EC30 result under setting [1] is “++ (“++” means between 3 uM and 10 uM)”.

As for `CCCC(C)(C)Oc1cccc(S(=O)(=O)NC(=O)c2cccnc2N2CC(C)CC2(C)C)n1` (centres unmarked) [Compound 2130, N—[[6-(1,1-dimethylbutoxy)-2-pyridyl]sulfonyl]-2-(2,2,4-trimethylpyrrolidin-1-yl)pyridine-3-carboxamide], the EC30 under setting [2] was less than 3 µM.

In the case of `CC1CN(c2ncc(-c3ccc(Cl)cc3)cc2C(=O)NS(=O)(=O)c2cccc(N)n2)C(C)(C)C1` (centres unmarked) [Compound 2399, N-[(6-amino-2-pyridyl)sulfonyl]-5-(4-chlorophenyl)-2-(2,2,4-trimethylpyrrolidin-1-yl)pyridine-3-carboxamide], the EC30 under setting [2] is less than 3 µM.

The values are drawn from patent US10758534B2 (Vertex Pharmaceuticals Incorporated, priority 2014, dated 2020).
